From the SangsterLogP compilation
One block for each compound: values may come before it.

Assays:
[1] = method code SF-AS, from DOI: 10.1002/jps.2600690614, PMID: 7205578
[2] = method code SF-AS, from DOI: 10.1248/cpb.26.2832
[3] = method code SF-HPLC, from DOI: 10.1016/0378-5173(92)90116-j; conditions: pH 7.4
[4] = not given; remark: listed apart in the source
[5] = method code SF-NMR, from DOI: 10.1002/jps.2600751016, PMID: 3795031
[6] = method code SF, from DOI: 10.1016/0360-3016(92)90876-j, PMID: 1735696; conditions: pH 7.4
[7] = not given; remark: listed apart in the source
[8] = not given; remark: listed apart in the source
[9] = not given; remark: listed apart in the source
[10] = not given; remark: listed apart in the source
[11] = method code SF-AS, from PMID: 5136171
[12] = not given; remark: listed apart in the source
[13] = not given; remark: listed apart in the source
[14] = not given; remark: listed apart in the source
[15] = method code SF-GLC, from DOI: 10.1016/s0022-3565(25)30310-1, PMID: 1181405; conditions: pH 7.4
[16] = not given; remark: listed apart in the source
[17] = not given; remark: listed apart in the source
[18] = method code SF-GLC, from DOI: 10.1021/jm00240a002, PMID: 1151965
[19] = method code SF, from DOI: 10.1097/00004424-199009001-00048; conditions: pH 7.4
[20] = not given; remark: listed apart in the source
[21] = method code SF-HPLC, from DOI: 10.1016/0378-5173(85)90011-0
[22] = method code SF-AS, from DOI: 10.1039/p29900001191; conditions: pH 12.0

- logP: 4.61
SMILES: O=C1c2c(O)cccc2C(C(=O)Cc2cccc3ccccc23)c2cccc(O)c21

- logP [2]: 3.49
SMILES: CCCCC(=O)OC1(C(=O)CO)C(C)CC2C3CCC4=CC(=O)C=CC4(C)C3(F)C(O)CC21C (stereo unspecified)

- logP [4]: 6.3
SMILES: CC(C)C12C=CC(C)(CC1)C1C(=O)N(CCCCN3CCN(c4ccc5ccccc5n4)CC3)C(=O)C12 (stereo unspecified)

- logP [7]: 4.98
SMILES: COc1ccccc1C(=O)N1CCCN(c2nc3ccc(Cl)cc3s2)CC1

- logP [10]: 4.64
SMILES: CC(=O)C(C(=O)ON=C(C)C12CC3CC(CC(C3)C1)C2)c1ccccc1 (stereo unspecified)

- logP [12]: 4.26
SMILES: COC(=O)C1=C(C)NC(C)=C(C(=O)OC/C=C/c2ccccc2)C1c1cccc([N+](=O)[O-])c1 (stereo unspecified)

- logP [4]: 6.59
SMILES: CC(C)C12CCC(C)(CC1)C1C(=O)N(CCCCN3CCN(c4ccc5ccccc5n4)CC3)C(=O)C12 (stereo unspecified)

- logP [10]: 3.21
SMILES: CC(=O)OC(C(=O)NC12CC3CC(CC(C3)C1)C2)c1ccccc1 (stereo unspecified)

- logP [14]: 0.06
SMILES: CS(=O)(=O)c1ccc(OCC(=O)O)cc1

- logP [13]: 1.83
SMILES: O=c1oc2ccccc2c(O)c1Cc1c(O)c2ccccc2oc1=O

- logP [10]: 3.72
SMILES: CCC(=O)OC(C(=O)NC12CC3CC(CC(C3)C1)C2)c1ccccc1 (stereo unspecified)

- logP [17]: 4.08
SMILES: Cc1cc(C(=O)N2Cc3ccc(C(=O)N4CCOCC4)n3Cc3ccccc32)ccc1-c1ccccc1CCF

- logP: 4.97
SMILES: O=C1c2c(O)cccc2C(C(=O)CC2CCCCC2)c2cccc(O)c21

- logP [10]: 3.28
SMILES: CC(=O)OC(C(=O)ON=C1C2CC3CC(C2)CC1C3)c1ccccc1 (stereo unspecified)

- logP [17]: 3.31
SMILES: Cc1cc(C(=O)N2Cc3ccc(C(=O)N(CCO)CCO)n3Cc3ccccc32)ccc1-c1cc(F)ccc1C(F)(F)F

- logP: 4.6
SMILES: O=C1c2c(O)cccc2C(C(=O)C(c2ccccc2)c2ccccc2)c2cccc(O)c21

- logP [4]: 3.64
SMILES: O=C1C2C3CCC(C3)C2C(=O)N1CCCCN1CCN(c2ccc3ccccc3n2)CC1 (stereo unspecified)

- logP [2]: 1.92
SMILES: CC(=O)OCC(=O)[C@@]1(O)[C@H](OC(C)=O)C[C@H]2[C@@H]3CCC4=CC(=O)C=C[C@]4(C)[C@@]3(F)[C@@H](O)C[C@@]21C

- logP: 4.71
SMILES: O=C1c2c(O)cccc2C(C(=O)Cc2ccc3ccccc3c2)c2cccc(O)c21

- logP [7]: 3.79
SMILES: Cn1c(CCC(=O)N2CCC[C@H]2C(=O)Nc2ccccc2-c2ccccc2)nc2ccccc21

- logP [16]: 0.43
SMILES: O=C(Cc1cc(O)cc(=O)o1)c1ccccc1

- logD [3]: 2.03
SMILES: CCC(C(=O)OCc1ccccc1COC(=O)C(CC)C(CO)Cc1cncn1C)C(CO)Cc1cncn1C (stereo unspecified)

- logP [12]: 3.65
SMILES: CCOC(=O)C1=C(C)NC(C)=C(C(=O)OC)C1c1cccc(Cl)c1Cl (stereo unspecified)

- logP [12]: 5.18
SMILES: CC1=C(C(=O)OC(C)C)C(c2cccc([N+](=O)[O-])c2)C(C(=O)OC2CN(C(c3ccccc3)c3ccccc3)C2)=C(N)N1 (stereo unspecified)

- logP [2]: 2.1
SMILES: CC(=O)OCC(=O)[C@@]1(O)CC[C@H]2[C@@H]3CCC4=CC(=O)CC[C@]4(C)[C@H]3C(=O)C[C@@]21C

- logP [14]: 2.9
SMILES: CCOC(=O)COc1cccc2ccccc12

- logD [22]: 3.38
SMILES: c1ccc(-c2cc(-c3ccccc3)c(NCCN3CCOCC3)nn2)cc1

- logP [12]: 2.88
SMILES: CCOC(=O)C1=C(C)NC(C)=C(C(=O)OC)C1c1cccc([N+](=O)[O-])c1 (stereo unspecified)

- logP [8]: 1.51
SMILES: O=C(O)c1[nH]c2cc(Cl)cc(Cl)c2c1CN1CC(=O)N(c2ccccc2OCCF)C1=O

- logP [16]: 0.78
SMILES: Cc1c(O)cc(C(=O)Cc2ccccc2)oc1=O

- logP [17]: 3.21
SMILES: Cc1cc(C(=O)N2Cc3ccc(C(=O)N(CCO)CCO)n3Cc3ccccc32)ccc1-c1ccccc1C(F)(F)F

- logP [2]: 2.4
SMILES: CC(=O)OCC(=O)[C@@]1(O)CC[C@H]2[C@@H]3CCC4=CC(=O)C=C[C@]4(C)[C@H]3[C@@H](O)C[C@@]21C

- logD [22]: 1.86
SMILES: NC(=O)c1cc(-c2ccccc2)nnc1NCCN1CCOCC1

- logD [22]: 2.03
SMILES: Cc1cc(-c2ccccc2)nnc1NCCN1CCOCC1

- logP [17]: 4.18
SMILES: Cc1cc(C(=O)N2Cc3ccc(C(=O)NCCF)n3Cc3ccccc32)ccc1-c1ccccc1C(F)(F)F

- logP [4]: 3.83
SMILES: O=C1C2C3C=CC(CC3)C2C(=O)N1CCCCN1CCN(c2ccc3ccccc3n2)CC1 (stereo unspecified)

The remaining lines, values behind:

SMILES: CN(C)CCN(Cc1cccs1)c1ccccn1
- logP [1]: 2.87

SMILES: CCC(C(=O)OCCCCCCCOC(=O)C(CC)C(CO)Cc1cncn1C)C(CO)Cc1cncn1C (stereo unspecified)
- logD [3]: 2.67

SMILES: CCC(C(=O)OCc1ccc(COC(=O)C(CC)C(CO)Cc2cncn2C)cc1)C(CO)Cc1cncn1C (stereo unspecified)
- logD [3]: 2.18

SMILES: CCC(O)CCC(F)(F)F (stereo unspecified)
- logP [5]: 1.7

SMILES: O=[N+]([O-])c1nccn1CC=NO
- logD [6]: -0.43

SMILES: COc1ccc(N2C(=O)CN(Cc3c(C(=O)O)[nH]c4cc(Cl)cc(Cl)c34)C2=O)cc1
- logP [8]: 2.26

SMILES: CCC(=O)OC1CC(n2cc(C=CBr)c(=O)[nH]c2=O)OC1COP1(=O)OCc2cccc(C)c2O1 (stereo unspecified)
- logP [9]: 2.3

SMILES: CCCCCCCCCC(=O)OC1CC(n2cc(C=CBr)c(=O)[nH]c2=O)OC1COP1(=O)OCc2cccc(C)c2O1 (stereo unspecified)
- logP [9]: 2.8

SMILES: CCOC(=O)c1cnc2cc(OCCOC)c(OCC(C)C)cc2c1O
- logP [11]: 1.84

SMILES: CC(c1c(O)c2ccccc2oc1=O)c1c(O)c2ccccc2oc1=O
- logP [13]: 0.43

SMILES: Nc1nc[nH]n1
- logP [14]: -0.87

SMILES: COc1ccc(CNC(=O)c2cc(-c3cncc(Cl)c3)cnc2-c2ccccn2)nc1OC
- logP [7]: 3.2

SMILES: Cc1cccc2c1OP(=O)(OCC1OC(n3cc(C=CBr)c(=O)[nH]c3=O)CC1OC(=O)C(C)(C)C)OC2 (stereo unspecified)
- logP [9]: 3

SMILES: CNC(=O)Oc1cc(C)c(C)c(C)c1
- logD [15]: 2.66

SMILES: O=c1cc(O)cco1
- logP [16]: 0.5

SMILES: O=C(O)c1[nH]c2cc(Cl)cc(Cl)c2c1CN1CC(=O)N(c2ccc(OCCF)c(Cl)c2)C1=O
- logP [8]: 2.53

SMILES: FC(F)(F)C(F)(F)F
- logP [18]: 2

SMILES: O=C(NCC(O)CO)c1c(I)c(N(CCO)C(=O)CO)c(I)c(N(CCO)C(=O)CO)c1I (stereo unspecified)
- logD [19]: -2.55

SMILES: COc1nc(C)ncc1OCC1(c2cccc(F)c2)CC1C(=O)Nc1ccc(F)cn1 (stereo unspecified)
- logP [7]: 3.65

SMILES: CCCCCCCCOC(=O)N(C)SN(C)C(=O)Oc1ccc2c(c1)OCO2
- logP [20]: 4.67

SMILES: S=C1NCCCN1
- logP [1]: -0.68

SMILES: CCC(C(=O)OCCCCCOC(=O)C(CC)C(CO)Cc1cncn1C)C(CO)Cc1cncn1C (stereo unspecified)
- logD [3]: 1.57

SMILES: O=C(Cn1ccnc1[N+](=O)[O-])NCCO
- logD [6]: -1.32

SMILES: CCCCCCCCCCCCOC(=O)N(C)SN(C)C(=O)Oc1ccc2c(c1)OCO2
- logP [20]: 7.39

SMILES: CCCCCCCCCCCCCCCCOC(=O)N(C)SN(C)C(=O)Oc1ccc2c(c1)OCO2
- logP [20]: 10.5

SMILES: CNC(=O)OC
- logD [15]: -0.06

SMILES: CCC(=O)n1ncc2c(=O)[nH]cnc21
- logP [21]: 0.3

SMILES: COCC(=O)Nc1c(I)c(C(=O)NCC(O)CO)c(I)c(C(=O)N(C)CC(O)CO)c1I (stereo unspecified)
- logD [19]: -2.05

SMILES: CCCCC(c1c(O)c2ccccc2oc1=O)c1c(O)c2ccccc2oc1=O
- logP [13]: 2.69

SMILES: O=C(O)c1[nH]c2cc(Cl)cc(Cl)c2c1CN1CC(=O)N(c2ccc(OCCF)cc2)C1=O
- logP [8]: 2.07

SMILES: CCCCCC(=O)OC1CC(n2cc(C=CBr)c(=O)[nH]c2=O)OC1COP1(=O)OCc2cccc(C)c2O1 (stereo unspecified)
- logP [9]: 2.6

SMILES: COC(F)(F)C(Cl)Cl
- logP [18]: 2.21

SMILES: O=C(NCCO)c1c(I)c(C(=O)NCCO)c(I)c(N(CC(O)CO)C(=O)C(O)CO)c1I (stereo unspecified)
- logD [19]: -2.64

SMILES: CC(=O)O/N=C/Cn1ccnc1[N+](=O)[O-]
- logD [6]: -0.47

SMILES: CC(=O)n1ncc2c(=O)[nH]cnc21
- logP [21]: -0.35

SMILES: O=c1[nH]cnc2[nH]ncc12
- logD ([21]; pH 7.4): -0.55

SMILES: CCOC(=O)c1cnc2cc(OCCOC)c(OC(C)C)cc2c1O
- logP [11]: 1.86

SMILES: CC(C)Oc1ccccc1OC(=O)N(C)SN(C)C(=O)Oc1ccc2c(c1)OCO2
- logP [20]: 2.7

SMILES: FC(F)(F)C(Cl)Br (stereo unspecified)
- logP [18]: 2.3

SMILES: CCCCOc1cc2c(O)c(C(=O)OCC)cnc2cc1OCCOC
- logP [11]: 1.72

SMILES: C[C@H](O)C(=O)Nc1c(I)c(C(=O)NC(CO)CO)c(I)c(C(=O)NC(CO)CO)c1I
- logD [19]: -2.42

SMILES: CCN1CCN(CC)C1=S
- logP [1]: 1.13

SMILES: CCCOC(=O)NC
- logD [15]: 0.95

SMILES: CCCC(c1c(O)c2ccccc2oc1=O)c1c(O)c2ccccc2oc1=O
- logP [13]: 2.31

SMILES: CCCOc1cc2c(O)c(C(=O)OCC)cnc2cc1OCCOC
- logP [11]: 1.7
